# According to patent US8993757B2, “N-piperidin-4-yl derivatives” (Merck Sharp & Dohme B.V., priority 2011, dated 2015):
# Several values for one entry are separate records, joined by “and”; a condition that tells them apart may be missing. Identical values can stand only once.
# Target: T1, human FSH receptor (Homo sapiens, UniProt P23945)
# T1 construct: expressed in transfected cells; host or cells: CHO cells, cotransfected with a CRE/promotor firefly luciferase reporter
# T1 sequence (P23945 18-695): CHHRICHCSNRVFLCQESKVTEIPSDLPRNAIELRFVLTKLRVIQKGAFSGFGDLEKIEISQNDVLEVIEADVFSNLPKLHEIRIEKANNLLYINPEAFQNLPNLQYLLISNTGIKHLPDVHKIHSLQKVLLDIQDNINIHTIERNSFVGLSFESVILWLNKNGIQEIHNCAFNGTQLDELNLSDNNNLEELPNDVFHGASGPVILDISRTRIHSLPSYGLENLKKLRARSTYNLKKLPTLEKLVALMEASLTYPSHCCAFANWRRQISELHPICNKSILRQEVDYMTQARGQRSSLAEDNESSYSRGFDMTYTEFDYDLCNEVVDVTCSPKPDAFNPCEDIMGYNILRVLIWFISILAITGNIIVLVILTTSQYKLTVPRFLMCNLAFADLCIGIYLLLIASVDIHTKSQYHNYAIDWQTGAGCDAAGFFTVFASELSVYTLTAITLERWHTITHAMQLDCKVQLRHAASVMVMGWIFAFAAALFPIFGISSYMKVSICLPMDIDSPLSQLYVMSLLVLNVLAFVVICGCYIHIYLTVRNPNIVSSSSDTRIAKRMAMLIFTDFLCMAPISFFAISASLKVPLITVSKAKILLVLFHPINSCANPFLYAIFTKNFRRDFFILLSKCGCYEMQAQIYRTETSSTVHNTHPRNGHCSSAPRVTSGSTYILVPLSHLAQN
# Experiment: Antagonistic activity at the human FSH receptor expressed in CHO cells (CRE-luciferase reporter)
# Assay type: cell-based
# Details: CHO cells stably transfected with human FSH receptor and CRE/firefly luciferase reporter; 4 hours incubation; read-out: pIC50 (negative logarithm of the IC50 value) (converted)
# Method: The FSHR antagonists of the invention have pIC50 values higher than 6 in said assay. The preferred compounds of the invention have pIC50 values higher than 8.
# Antagonistic activity of the compounds at the human FSH receptor was determined in Chinese Hamster Ovary (CHO) cells stably transfected with the human FSH receptor and cotransfected with a cAMP responsive element (CRE)/promotor directing the expression of a firefly luciferase reporter gene. […] The cells (7,500 cells/well of a 384 well plate) were incubated in Dulbecco′ minimal essential F12 modified medium (Invitrogen), supplemented with 1 μg/ml bovine insulin, 5 μg/ml human apo-transferrin, 100 U/ml penicillin G and 100 μg/ml streptomycin with the test compounds (concentration between 0.316 nM and 10.0 μM) in duplicate together with […] (which, at this concentration in the absence of test compound, induces 80% of the maximal luciferase stimulation) in a humidified atmosphere (95%) at 5-7% CO2 and 37° C. The final concentration of DMSO was 1%. After 4 hours of incubation, plates were allowed to adjust to room temperature for 1 hour. Then, SteadyLite (Perkin Elmer) solution was added to the wells and cells were allowed to lyse for at least 1 hour at room temperature. Subsequently, luciferase activity was measured in a luminescence counter. The signal is expressed as counts per second (cps). The IC50 (concentration of test compound causing half-maximal (50%) inhibition of the maximally attainable inhibition of the luciferase stimulation by the compound) and efficacy of the compounds were determined using the software program MathIQ (version 2.3, ID Business Solutions Limited).
row,IC50,SMILES
1,10 to 100 nM,"COc1cc(OCC2CC2)cc(C(=O)NCC2CCN(c3ncnc(-c4cccc(C(=O)NCCO)c4)n3)CC2)c1 [Example 32H, 3-(cyclopropylmethoxy)-N-((1-(4-(3-(2-hydroxyethylcarbamoyl)phenyl)-1,3,5-triazin-2-yl)piperidin-4-yl)methyl)-5-methoxybenzamide]"
2,10 to 100 nM,"COc1cc(OCC2CC2)cc(C(=O)NCC2CCN(c3ncnc(-c4cccc(C(=O)Nc5nccs5)c4)n3)CC2)c1 [Example 32I, 3-(cyclopropylmethoxy)-5-methoxy-N-((1-(4-(3-(thiazol-2-ylcarbamoyl)phenyl)-1,3,5-triazin-2-yl)piperidin-4-yl)methyl)benzamide]"
3,10 to 100 nM and < 10 nM,"COc1cc(OCC2CC2)cc(C(=O)NCC2CCN(c3ccnc(-c4cccc(-n5cc(C)cn5)c4)n3)CC2)c1 [Example 33A, 3-(cyclopropylmethoxy)-5-methoxy-N-((1-(2-(3-(4-methyl-1H-pyrazol-1-yl)phenyl)pyrimidin-4-yl)piperidin-4-yl)methyl)benzamide]"
4,10 to 100 nM,"COc1cc(OCC2CC2)cc(C(=O)NCC2CCN(c3ccnc(-c4ccc5oncc5c4)n3)CC2)c1 [Example 33B, N-((1-(2-(benzo[d]isoxazol-5-yl)pyrimidin-4-yl)piperidin-4-yl)methyl)-3-(cyclopropylmethoxy)-5-methoxybenzamide]"
5,10 to 100 nM,"COc1cc(OCC2CC2)cc(C(=O)NCC2CCN(c3ccnc(-c4ccc(F)c(C#N)c4)n3)CC2)c1 [Example 33C, N-((1-(2-(3-cyano-4-fluorophenyl)pyrimidin-4-yl)piperidin-4-yl)methyl)-3-(cyclopropylmethoxy)-5-methoxybenzamide]"
6,10 to 100 nM,"COc1cc(OCC2CC2)cc(C(=O)NCC2CCN(c3ccnc(-c4cccc(-n5ncc(C(=O)O)c5C)c4)n3)CC2)c1 [Example 33D, 1-(3-(4-(4-((3-(cyclopropylmethoxy)-5-methoxybenzamido)methyl)piperidin-1-yl)pyrimidin-2-yl)phenyl)-5-methyl-1H-pyrazole-4-carboxylic acid]"
7,10 to 100 nM,"COc1cc(OCC2CC2)cc(C(=O)NCC2CCN(c3ccnc(-c4cccc(-n5cccn5)n4)n3)CC2)c1 [Example 33E, N-((1-(2-(6-(1H-pyrazol-1-yl)pyridin-2-yl)pyrimidin-4-yl)piperidin-4-yl)methyl)-3-(cyclopropylmethoxy)-5-methoxybenzamide]"
8,10 to 100 nM,"COc1cc(OCC2CC2)cc(C(=O)NCC2CCN(c3ncnc(-c4ccc(O)c(C#N)c4)n3)CC2)c1 [Example 34, N-((1-(4-(3-cyano-4-hydroxyphenyl)-1,3,5-triazin-2-yl)piperidin-4-yl)methyl)-3-(cyclopropylmethoxy)-5-methoxybenzamide]"
9,10 to 100 nM,"COc1cc(OCC2CC2)cc(C(=O)NC2CC23CCN(c2ccnc(-c4cccc(-n5cccn5)c4)n2)CC3)c1 (centres unmarked) [Example 35, N-(6-(2-(3-(1H-pyrazol-1-yl)phenyl)pyrimidin-4-yl)-6-azaspiro[2.5]octan-1-yl)-3-(cyclopropylmethoxy)-5-methoxybenzamide]"
10,< 10 nM,"COc1cc(OCC2CC2)cc(C(=O)NC(C)C2CCN(c3ncnc(-c4cccc(-c5cc[nH]n5)c4)n3)CC2)c1 (centres unmarked) [Example 37, N-(1-(1-(4-(3-(1H-pyrazol-3-yl)phenyl)-1,3,5-triazin-2-yl)piperidin-4-yl)ethyl)-3-(cyclopropylmethoxy)-5-methoxybenzamide]"
11,< 10 nM,"COc1cc(OCC2CC2)cc(C(=O)NC(C)C2CCN(c3ccnc(-c4cccc(C#N)c4)n3)CC2)c1 (centres unmarked) [Example 38, N-(1-(1-(2-(3-cyanophenyl)pyrimidin-4-yl)piperidin-4-yl)ethyl)-3-(cyclopropylmethoxy)-5-methoxybenzamide]"
12,< 10 nM,"COc1cc(OCC2CC2)cc(C(=O)NC(C)C2CCN(c3ccnc(-c4cccc(-n5cccn5)c4)n3)CC2)c1 (centres unmarked) [Example 39, N-(1-(1-(2-(3-(1H-pyrazol-1-yl)phenyl)pyrimidin-4-yl)piperidin-4-yl)ethyl)-3-(cyclopropylmethoxy)-5-methoxybenzamide]"
13,< 10 nM,"COc1cc(OCC2CC2)cc(C(=O)NCC2CCN(c3ncnc(-c4cccc(-c5ncc[nH]5)c4)n3)CC2)c1 [Example 40, N-((1-(4-(3-(1H-imidazol-2-yl)phenyl)-1,3,5-triazin-2-yl)piperidin-4-yl)methyl)-3-(cyclopropylmethoxy)-5-methoxybenzamide 2,2,2-trifluoroacetate]"
14,< 10 nM,"COc1cc(OCC2CC2)cc(C(=O)NCC2CCN(c3nc(-c4cccc(-c5ncc[nH]5)c4)ncc3F)CC2)c1 [Example 41, N-((1-(2-(3-(1H-imidazol-2-yl)phenyl)-5-fluoropyrimidin-4-yl)piperidin-4-yl)methyl)-3-(cyclopropylmethoxy)-5-methoxybenzamide 2,2,2-trifluoroacetate]"
15,10 to 100 nM,"COc1cc(NC(=O)C2CCN(c3ccnc(-c4cccc(-n5cccn5)c4)n3)CC2)cc(OCc2ccc(F)cc2)c1 [Example 42, 1-(2-(3-(1H-pyrazol-1-yl)phenyl)pyrimidin-4-yl)-N-(3-(4-fluorobenzoxy)-5-methoxyphenyl)piperidine-4-carboxamide]"
16,< 10 nM,"COc1cc(NC(=O)C2CCN(c3ccnc(-c4cccc(-n5cccn5)c4)n3)CC2)cc(OCc2cc(C)on2)c1 [Example 43, 1-(2-(3-(1H-pyrazol-1-yl)phenyl)pyrimidin-4-yl)-N-(3-methoxy-5-((5-methylisoxazol-3-yl)methoxy)phenyl)piperidine-4-carboxamide]"
17,10 to 100 nM,"COc1cc(NC(=O)C2CCN(c3ccnc(-c4cccc(-n5cccn5)c4)n3)CC2)cc(OC(C)C)c1 [Example 44, 1-(2-(3-(1H-pyrazol-1-yl)phenyl)pyrimidin-4-yl)-N-(3-isopropoxy-5-methoxyphenyl)piperidine-4-carboxamide]"
18,10 to 100 nM,"COc1cc(NC(=O)C2CCN(c3ccnc(-c4cccc(-n5cccn5)c4)n3)CC2)cc(OCC2CCCCC2)c1 [Example 45, 1-(2-(3-(1H-pyrazol-1-yl)phenyl)pyrimidin-4-yl)-N-(3-(cyclohexylmethoxy)-5-methoxyphenyl)piperidine-4-carboxamide]"
19,10 to 100 nM,"Cc1cc(NC(=O)C2CCN(c3ccnc(-c4cccc(-n5cccn5)c4)n3)CC2)cc(OC(F)(F)F)c1 [Example 46, 1-(2-(3-(1H-pyrazol-1-yl)phenyl)pyrimidin-4-yl)-N-(3-methyl-5-(trifluoromethoxy)phenyl)piperidine-4-carboxamide]"
20,< 10 nM,"COc1cc(NC(=O)C2CCN(c3ccnc(-c4cccc(-n5cccn5)c4)n3)CC2)cc(OC)c1 [Example 51, 1-(2-(3-(1H-pyrazol-1-yl)phenyl)pyrimidin-4-yl)-N-(3,5-dimethoxyphenyl) piperidine-4-carboxamide]"
